Assay results reported in patent US6355225B1, “Fullerene contrast agent for magnetic resonance imaging and spectroscopy” (Wm. Marsh Rice University TDA Research, Inc., priority 1999, dated 2002).

Key:
Type in all cases: physicochemical
[1] = Effective magnetic moment of solid sample, Quantum Design MPMS-5S magnetometer at 5 Tesla; settings: 300 K, after diamagnetic correction
From the text: (§1) The magnetic properties of the fullerol were characterized by several methods. […] A solid sample was further studied using a Quantum Design MPMS-5S […] magnetometer operating at 5 Tesla. […] After correction for the diamagnetic contribution of the sample (using data from C60 for the fullerene carbons and Pascal's constants for the OH groups), the final value of the effective magnetic moment, μb, of the C60(OH)32 is approximately 1.5 Bohr magnetons at 300 K. Given the large diamagnetic contribution, uncertainty in the diamagnetic correction factors, and assuming no spin orbit or other types of spin coupling, this is within the experimental error for predicting one free electron per fullerol molecule in the solid state. A measurement of the paramagnetism of the solution form of the acid fullerol was then conducted using the NMR method employing D2O as the solvent and t-butyl alcohol as the reference compound. Measurement of the chemical shift of the reference peaks indicated a paramagnetism of 2.1 Bohr magnetons at 300 K when in solution.

[2] = Paramagnetism in solution by the NMR method (D2O solvent, t-butyl alcohol reference); settings: 300 K
From the text: as §1

[3] = Air stability of the paramagnetic fullerol
From the text: According to a second embodiment, a water-soluble, paramagnetic fullerene derivative comprising about 32 hydroxyl groups attached to C60 fullerene was synthesized and shown to be air-stable, paramagnetic, and an efficient water proton relaxation agent.
These experimental results make C60(OH)32 (or C60(OH)32^− or C60(OH)32^2−) the first reported water-soluble, air-stable fullerene paramagnetic radical.

[4] = Water solubility of the C60(OH)32 fullerol
[5] = Water proton relaxivity (T1), Bruker PC/20 relaxometer; settings: 20 MHz (0.47 T), 40° C., four concentrations
Method: The paramagnetic fullerol's potential as an MRI relaxation agent was evaluated by direct measurement of its water proton relaxivity using a Bruker model PC/20 relaxometer (Bruker Ltd., Canada) operating at a fixed field of 20 MHz (0.47 T) and 40° C. Four separate measurements at four different concentrations were performed to determine the T1 relaxation. A plot of the results is shown in FIG. 3 and indicates a relaxivity of about 0.5 mM^−1sec^−. The relaxivity of the compound is thus considerably lower than the best currently available Gd-chelates (ca. […]) but is still large enough to be useful in the body.

- effective magnetic moment [1]: approximately 1.5 Bohr magnetons
- paramagnetism in solution [2]: 2.1 Bohr magnetons
- stability in air [3]: air-stable
- solubility in water [4]: at least 4 mM
- water proton relaxivity (T1) [5]: about 0.5 mM^−1sec^−
Substance: C60(OH)32
